How the values were obtained:
human keratinocytes = assay type: cell-based; conditions: 0.3 µM with 500 µM carvacrol, 24 h
Protocol: Figure 5 Alpha-mangostin (α-MG) inhibited carvacrol-induced cytokine release in NHEK cells and rescued carvacrol-induced cell death. (A) Alpha-mangostin inhibited the carvacrol-induced release of IL-8 and IL-6 in NHEK. Cells were induced by 300 µM carvacrol with or without either 1 µM alpha-mangostin or 10 µM 74a for 24 h before the ELISA assay. (B) Alpha-mangostin reduced cell death caused by carvacrol in human keratinocytes. Cells were induced by 500 µM carvacrol with or without either 0.3 µM alpha-mangostin or 10 µM 74a for 24 h. The optical density (O.D.) values were normalized to those of the untreated cells. Data are shown as means ± SEM. **** p < 0.0001.
Strong activation of TRPV3 in keratinocytes by carvacrol at concentrations higher than 300 µM was reported to cause cell death. Therefore, we examined the effect of alpha-mangostin in keratinocytes exposed to 500 µM carvacrol.
The cell counting kit-8 (CCK8; Dojindo Laboratories, Kumamoto, Japan) was employed for viability assay. Keratinocytes (10^4 cells/well) plated in 96-well plates were incubated for about one day before exposing them to alpha-mangostin for 24 h. […] The optical density (O.D., 450 nm) of each well was measured after incubating the cells with CCK-8 solution ([…]) for 2 h. […]

TRPV1 = conditions: read-out: IC50 (µM), channel inhibited TRPV1; cited from earlier work
TRPV3 = molecular target: T1, TRPV3 (Homo sapiens, UniProt Q8NET8); experiment: Whole-cell patch-clamp, 2-APB-evoked TRPV3 current in hTRPV3-overexpressing HEK 293T cells; assay type: cell-based; design: expressed in transfected cells
T1 sequence (Q8NET8 1-790): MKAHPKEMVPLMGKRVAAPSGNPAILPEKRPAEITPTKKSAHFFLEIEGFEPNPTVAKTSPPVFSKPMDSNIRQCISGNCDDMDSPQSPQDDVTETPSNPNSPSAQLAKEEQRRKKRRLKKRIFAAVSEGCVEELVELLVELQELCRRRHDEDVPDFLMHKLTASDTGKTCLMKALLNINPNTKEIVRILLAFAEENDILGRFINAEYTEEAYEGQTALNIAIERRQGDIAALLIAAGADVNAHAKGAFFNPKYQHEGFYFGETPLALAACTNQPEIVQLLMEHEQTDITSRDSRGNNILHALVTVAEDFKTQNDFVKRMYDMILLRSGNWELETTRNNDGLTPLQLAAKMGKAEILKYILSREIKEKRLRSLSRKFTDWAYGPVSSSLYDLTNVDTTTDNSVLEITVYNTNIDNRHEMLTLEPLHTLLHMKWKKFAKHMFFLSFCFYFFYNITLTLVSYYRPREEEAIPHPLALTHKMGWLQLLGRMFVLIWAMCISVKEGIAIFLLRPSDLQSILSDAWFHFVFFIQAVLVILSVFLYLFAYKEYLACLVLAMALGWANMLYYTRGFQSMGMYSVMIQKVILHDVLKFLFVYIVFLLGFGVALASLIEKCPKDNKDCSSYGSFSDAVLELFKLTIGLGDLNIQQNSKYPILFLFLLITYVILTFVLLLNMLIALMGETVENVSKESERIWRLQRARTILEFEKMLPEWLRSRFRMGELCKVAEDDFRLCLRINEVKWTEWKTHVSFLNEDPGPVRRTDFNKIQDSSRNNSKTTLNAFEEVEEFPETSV
Source text: First, we used a conventional whole-cell patch-clamp to record the TRPV3 current in HEK 293T cells overexpressing hTRPV3. Then, different concentrations of alpha-mangostin were perfused into the cells to determine the effects of alpha-mangostin on the TRPV3 current. Alpha-mangostin inhibited 2-APB-evoked TRPV3 current, as shown in a representative cell in Figure 1A.
Figure 1 Alpha-mangostin (α-MG) inhibited the TRPV3 current. […] (A) Alpha-mangostin inhibited 2-APB-evoked current in a representative TRPV3 overexpressing HEK 293T cell. The channel was activated using 100 µM 2-APB and subsequently perfused with solutions containing different concentrations of alpha-mangostin with 100 µM 2-APB. A solution containing 10 µM ruthenium red (RR, a TRP channel inhibitor) and 100 µM 2-APB was perfused at the end. […] Currents were normalized to the maximum response to 2-APB at −100 mV. (C) Alpha-mangostin inhibited carvacrol-evoked current in a representative TRPV3-overexpressing HEK 293T cell. TRPV3 was activated using 1000 µM carvacrol and subsequently perfused with solutions containing different concentrations of alpha-mangostin with 1000 µM carvacrol. A solution containing 10 µM RR and 1000 µM carvacrol was perfused at the end. (D) Summary of normalized currents evoked by carvacrol with or without alpha-mangostin at −100 mV. Currents were normalized to the maximum response carvacrol at −100 mV. (E) Alpha-mangostin inhibited 2-APB-evoked current in NHEK. The channel was activated using 100 µM 2-APB and subsequently perfused with solutions containing different concentrations of alpha-mangostin with 100 µM 2-APB. A solution containing 10 µM 74a (a TRPV3 inhibitor) and 100 µM 2-APB was perfused at the end. […] The right panel summarizes normalized currents evoked by 2-APB with or without alpha-mangostin at −100 mV. Currents were normalized to the maximum response to 2-APB at −100 mV. Data are presented as means ± SEM. ** p < 0.01, *** p < 0.001, **** p < 0.0001.
HEK 293T cells were purchased from the American Type Culture Collection (Cat. No. CRL-3216, ATCC, Manassas, VA, USA). TRPV3-overexpressing HEK 293T cells were supplied by Prof. Wan Lee (Dongguk University College of Medicine, Gyeongju, South Korea). HEK 293T cells expressing TRPV3 mutants (G573S, G573C), TRPV4, TRPA1 were made by transient transfection. These cells were cultured in Dulbecco’s modified Eagle’s medium (DMEM, Welgene, Daegu, Korea) containing 10% fetal bovine serum (FBS; Welgene) and 1% penicillin/streptomycin (P/S; Life Technologies, Carlsbad, CA, USA). […]
[…] Sampling at 10 kHz and low-pass filtering at 5 kHz (w-c) were applied for all recorded currents. Recorded data were analyzed using Clampfit ver. […]

Structure (SMILES): COc1c(O)cc2oc3cc(O)c(CC=C(C)C)c(O)c3c(=O)c2c1CC=C(C)C [Alpha-mangostin]
- Effect on carvacrol-induced decrease of cell viability (human keratinocytes): significantly reversed
- IC50 (TRPV1): 0.43 ± 0.27 µM
- Inhibition of 2-APB-evoked TRPV3 currents (TRPV3; 10 µM, 100 µM 2-APB, −100 mV, similar level to 10 µM ruthenium red): almost completely inhibited
- inhibition at 0.3 µM (TRPV3; HEK-293T, 0.3 µM, −100 mV, read-out: Inhibition percentage of TRPV3 current): 76.6%
- IC50 (TRPV3; hTRPV3-overexpressing HEK 293T, 100 µM 2-APB, at −100 mV, read-out: IC50, inhibition of 2-APB-induced TRPV3 current): 77 ± 13 nM
- Reversibility of inhibitory effect on TRPV3 current (TRPV3; wash out, 100 µM 2-APB, −60 mV holding potential): partly reversible

— paper PMC10455244, “Alpha-Mangostin: A Potent Inhibitor of TRPV3 and Pro-Inflammatory Cytokine Secretion in Keratinocytes” (International Journal of Molecular Sciences, 2023)
